What is called AC50 is the concentration at which the activity in the assay is half-maximal. Read a low AC50 as activity at low concentration.

The subject of the first assay is H1819. The assay is described as follows: Cell viability dose-response, H1819. To be noted: Homo sapiens, NCI-H1819; Table 8; 12-point dose-response starting at 50 micromolar. It is filed as cell-based, human. In short, it runs like this: (§1)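 Cells plated at 15% confluence in RPMI-1640 with 5% FBS and 2 mM L-glutamine, treated with compound in a 12-point, 3-fold dilution series from 50 micromolar, in duplicate. ATP measured by Cell Titer Glo after 4 days; IC50 taken from the dose-response curve.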
`O=C(CCc1ccc(Br)cc1)Cn1ccnc1` [SW209201-1] gave an AC50 of 49.5 µM.

For the molecule `O=C1c2ccc(OCc3cnn(-c4ccccc4)c3)cc2OCC1Cc1ccccc1` (stereo not drawn) [SW209202-1], the AC50 worked out at 49.5 µM.

`O=c1c(Cc2cccnc2)coc2cc(OCc3cnn(-c4ccccc4)c3)ccc12` [SW209203-1]: half-maximal activity (AC50) was put at 49.5 µM.

With `O=c1c(Cc2cnccn2)coc2cc(OCc3cnn(-c4ccccc4)c3)ccc12` [SW209207-1], the AC50 is 49.5 µM.

In the case of `COc1ncccc1Cc1coc2cc(OCc3cnn(-c4ccccc4)c3)ccc2c1=O` [SW209377-1], the AC50 turned out to be 49.5 µM.

As for `O=c1c(Cc2cccs2)coc2cc(OCc3cnn(-c4ccccc4)c3)ccc12` [SW209378-1], the AC50 was found to be 49.5 µM.

Turning to `O=c1c(Cc2ccsc2)coc2cc(OCc3cnn(-c4ccccc4)c3)ccc12` [SW209379-1], half-maximal activity (AC50) was put at 49.5 µM.

The molecule `O=c1c(Cc2nccs2)coc2cc(OCc3cnn(-c4ccccc4)c3)ccc12` [SW209380-1] showed an AC50 of 21.2 µM.

`O=c1c(Cc2cccc(O)c2)coc2cc(OCc3cnn(-c4ccccc4)c3)ccc12` [SW209381-1] came in with an AC50 of 49.5 µM.

For `O=c1c(Cc2ccc(Cl)nc2)coc2cc(OCc3cnn(-c4ccccc4)c3)ccc12` [SW209382-1], half-maximal activity (AC50) was put at 49.5 µM.

Consider `NCCCCCOc1cccc(CC2=CCc3cc(OCc4cnn(-c5ccccc5)c4)ccc3C2=O)c1` [SW209383-1], for which half-maximal activity (AC50) was put at 49.5 µM.

Still in this assay, the particulars now being: Tables 3 and 4; read-out: IC50 (uM) vs indicated non-small cell lung cancer cell line H1819.
With `C#CCOc1ccc(C(=O)c2ccc(C(=O)Nc3nc4ccc(OC)cc4s3)cc2)cc1` [SW209049-2], the IC50 amounted to 21 µM.

For the next assay, the system named is H2009. The assay is described as follows: Cell viability dose-response, H2009. It is filed as cell-based, human. To be noted: Homo sapiens, NCI-H2009, Table 8; 12-point dose-response starting at 50 micromolar. The essentials: (§2)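 Cells at 15% confluence in RPMI-1640 with 5% FBS and 2 mM L-glutamine were exposed to compound for 4 days. Viability was measured as ATP by CellTiter-Glo. Dose-responses used 12 points from 50 micromolar in 3-fold steps, in duplicate; IC50 from dose-response curves.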
The molecule `COc1ccc(Oc2coc3cc(OCc4cnn(-c5ccccc5)c4)ccc3c2=O)cc1` [SW 208596-1] came in with an AC50 of 16.5 µM.

On to `O=c1ccoc2cc(OCc3cnn(-c4ccccc4)c3)ccc12` [SW 208629-1], for which the AC50 is 49.5 µM.

`c1ccc(-n2cc(COc3ccc4cc(OCc5cnn(-c6ccccc6)c5)ccc4c3)cn2)cc1` [SW 208630-1]: the activity was half-maximal at 49.5 µM (AC50).

Take `O=c1c(-c2ccccc2)coc2cc(OCc3cnn(-c4ccccc4)c3)ccc12` [SW 208631-1]: the activity was half-maximal at 49.5 µM (AC50).

The test system of the next assay is H2073. The assay can be described thus: Cell viability dose-response, H2073. The assay is classed as cell-based, human. As to conditions: Homo sapiens, NCI-H2073, 12-point dose-response starting at 50 micromolar, 3-fold increments, in duplicate; read-out: toxicity data, H2073. Here is the method:
FIG. 6A. […] Cell viability is plotted vs. compound concentration. Compound was added to cells plated at 15% confluence in 96-well plates in RPMI-1640 media supplemented with 5% Fetal Bovine Serum and 2 mM L-Glutamine. After 4 days of incubation, ATP levels were measured using Cell Titer Glo (Promega). Data are presented as the average of 2 replicates ±SEM.
Selectivity may be measured by the half maximal inhibitory concentration (IC50), which, as used herein, is a measure of the effectiveness of a compound in killing cells. This quantitative measure indicates how much of a particular compound is needed to kill a particular cell population by half (e.g., as indicated by the amount of ATP). […] The IC50 can be determined by constructing a dose-response curve. The lower the IC50, the higher the potency, and the greater the difference between IC50 values for different cell lines (e.g., sensitive lines vs. insensitive lines, and sensitive lines vs. normal lines) the greater the selectivity. […]
With this information, we synthesized and tested a series of small molecules derived in conception from the oxalamide and chromone scaffold including N-acyl ureas, as shown in Tables 6-8. Each compound was tested in a 12-point dose-response study starting at 50 micromolar and decreasing in 3-fold increments to sub-nanomolar concentrations, in duplicate. Additionally, one or more additional cell line was tested in the same way.
Turning to `COc1ccc(CCNC(=O)C(=O)Nc2ccc(OCc3ccc(Br)cc3)cc2)cc1` [SW209048-1], the IC50 is at least 49.5 µM.

As to `COc1ccc(CCNC(=O)C(=O)Nc2ccc(COc3ccc(Br)cc3)cc2)cc1` [SW209050-1], the IC50 is 25.9 µM.

As for `COc1ccc(CCNC(=O)C(=O)Nc2ccc(Oc3ccc(Br)cc3)cc2)cc1` [SW209075-1], the IC50 is 8.07 µM.

Staying with this assay, now noted: Homo sapiens, NCI-H2073; Table 8; 12-point dose-response starting at 50 micromolar.
The molecule `O=C(CCc1ccc(Br)cc1)Cn1ccnc1` [SW209201-1] registered an AC50 of 49.5 µM.

The molecule `O=C1c2ccc(OCc3cnn(-c4ccccc4)c3)cc2OCC1Cc1ccccc1` (stereo not drawn) [SW209202-1] showed an AC50 of 49.5 µM.

Consider `O=c1c(Cc2cccnc2)coc2cc(OCc3cnn(-c4ccccc4)c3)ccc12` [SW209203-1], for which the AC50 is 44 µM.

`O=c1c(Cc2cnccn2)coc2cc(OCc3cnn(-c4ccccc4)c3)ccc12` [SW209207-1]: the AC50 worked out at 49.5 µM.

`COc1ncccc1Cc1coc2cc(OCc3cnn(-c4ccccc4)c3)ccc2c1=O` [SW209377-1] yielded an AC50 of 0.204 µM.

With `O=c1c(Cc2cccs2)coc2cc(OCc3cnn(-c4ccccc4)c3)ccc12` [SW209378-1], the AC50 was 0.068 µM.

Molecule `O=c1c(Cc2ccsc2)coc2cc(OCc3cnn(-c4ccccc4)c3)ccc12` [SW209379-1] yielded an AC50 of 0.087 µM.

For the molecule `O=c1c(Cc2nccs2)coc2cc(OCc3cnn(-c4ccccc4)c3)ccc12` [SW209380-1], the concentration at half-maximal activity (AC50) came to 17.7 µM.

`O=c1c(Cc2cccc(O)c2)coc2cc(OCc3cnn(-c4ccccc4)c3)ccc12` [SW209381-1] showed an AC50 of 49.5 µM.

As to `O=c1c(Cc2ccc(Cl)nc2)coc2cc(OCc3cnn(-c4ccccc4)c3)ccc12` [SW209382-1], half-maximal activity (AC50) was put at 0.244 µM.

Turning to `NCCCCCOc1cccc(CC2=CCc3cc(OCc4cnn(-c5ccccc5)c4)ccc3C2=O)c1` [SW209383-1], the activity was half-maximal at 49.5 µM (AC50).

The same assay, now with this note: Tables 3 and 4; read-out: IC50 (uM) vs indicated non-small cell lung cancer cell line H2073.
Consider `C#CCOc1ccc(C(=O)c2ccc(C(=O)Nc3nc4ccc(OC)cc4s3)cc2)cc1` [SW209049-2], for which the IC50 stood at 18 µM.

Another assay has as its system H2122. The assay is described as follows: Cell viability dose-response, H2122. It is filed as cell-based, human. As to conditions: Homo sapiens, NCI-H2122, 12-point dose-response starting at 50 micromolar, 3-fold increments, in duplicate; read-out: toxicity data, H2122. The essentials:
as §1
On to `COc1ccc(CCNC(=O)C(=O)Nc2ccc(OCc3ccc(Br)cc3)cc2)cc1` [SW209048-1], for which the IC50 is 0.157 µM.

`COc1ccc(CCNC(=O)C(=O)Nc2ccc(COc3ccc(Br)cc3)cc2)cc1` [SW209050-1]: the IC50 was found to be 0.031 µM.

Consider `COc1ccc(CCNC(=O)C(=O)Nc2ccc(Oc3ccc(Br)cc3)cc2)cc1` [SW209075-1], for which the IC50 was found to be 0.029 µM.

Still in this assay, the particulars now being: Homo sapiens, NCI-H2122, Table 8; 12-point dose-response starting at 50 micromolar.
Regarding `O=C(CCc1ccc(Br)cc1)Cn1ccnc1` [SW209201-1], the concentration at half-maximal activity (AC50) is at least 49.5 µM.

The molecule `O=C1c2ccc(OCc3cnn(-c4ccccc4)c3)cc2OCC1Cc1ccccc1` (stereo not drawn) [SW209202-1] came in with an AC50 of 0.307 µM.

`O=c1c(Cc2cccnc2)coc2cc(OCc3cnn(-c4ccccc4)c3)ccc12` [SW209203-1]: half-maximal activity (AC50) was put at 3.17 µM.

Consider `O=c1c(Cc2cnccn2)coc2cc(OCc3cnn(-c4ccccc4)c3)ccc12` [SW209207-1], for which the AC50 is 26.6 µM.

In the case of `COc1ncccc1Cc1coc2cc(OCc3cnn(-c4ccccc4)c3)ccc2c1=O` [SW209377-1], the AC50 worked out at 0.232 µM.

Take `O=c1c(Cc2cccs2)coc2cc(OCc3cnn(-c4ccccc4)c3)ccc12` [SW209378-1]: the AC50 stood at 0.081 µM.

As for `O=c1c(Cc2ccsc2)coc2cc(OCc3cnn(-c4ccccc4)c3)ccc12` [SW209379-1], half-maximal activity (AC50) was put at 0.082 µM.

On to `O=c1c(Cc2nccs2)coc2cc(OCc3cnn(-c4ccccc4)c3)ccc12` [SW209380-1], for which the AC50 is 0.352 µM.

As for `O=c1c(Cc2cccc(O)c2)coc2cc(OCc3cnn(-c4ccccc4)c3)ccc12` [SW209381-1], the activity was half-maximal at 7.03 µM (AC50).

As for `O=c1c(Cc2ccc(Cl)nc2)coc2cc(OCc3cnn(-c4ccccc4)c3)ccc12` [SW209382-1], the half-maximal activity concentration (AC50) turned out to be 0.325 µM.

`NCCCCCOc1cccc(CC2=CCc3cc(OCc4cnn(-c5ccccc5)c4)ccc3C2=O)c1` [SW209383-1] registered a half-maximal activity concentration (AC50) of 2.37 µM.

The molecule `COc1ccc(Oc2coc3cc(OCc4cnn(-c5ccccc5)c4)ccc3c2=O)cc1` [SW 208596-1] registered a concentration at half-maximal activity (AC50) of 0.22 µM.

`O=c1ccoc2cc(OCc3cnn(-c4ccccc4)c3)ccc12` [SW 208629-1] showed an AC50 of at least 49.5 µM.

Take `c1ccc(-n2cc(COc3ccc4cc(OCc5cnn(-c6ccccc6)c5)ccc4c3)cn2)cc1` [SW 208630-1]: the AC50 is at least 49.5 µM.

In turn, `O=c1c(-c2ccccc2)coc2cc(OCc3cnn(-c4ccccc4)c3)ccc12` [SW 208631-1] came in with an AC50 of 0.28 µM.

Still in this assay, the particulars now being: Tables 3 and 4; read-out: IC50 (uM) vs indicated non-small cell lung cancer cell line H2122.
In the case of `C#CCOc1ccc(C(=O)c2ccc(C(=O)Nc3nc4ccc(OC)cc4s3)cc2)cc1` [SW209049-2], the IC50 was determined as 0.131 µM.

Another assay has as its system HCC44. The assay can be described thus: Cell viability dose-response, HCC44. It is filed as cell-based, human. As to conditions: Homo sapiens, HCC44, Table 8; 12-point dose-response starting at 50 micromolar. The essentials:
as §2
Molecule `COc1ccc(Oc2coc3cc(OCc4cnn(-c5ccccc5)c4)ccc3c2=O)cc1` [SW 208596-1] returned an AC50 of 16.5 µM.

In the case of `O=c1ccoc2cc(OCc3cnn(-c4ccccc4)c3)ccc12` [SW 208629-1], the half-maximal activity concentration (AC50) was found to be 49.5 µM.

In turn, `c1ccc(-n2cc(COc3ccc4cc(OCc5cnn(-c6ccccc6)c5)ccc4c3)cn2)cc1` [SW 208630-1] came in with an AC50 of 49.5 µM.

Regarding `O=c1c(-c2ccccc2)coc2cc(OCc3cnn(-c4ccccc4)c3)ccc12` [SW 208631-1], the AC50 was determined as 49.5 µM.

These data come from US9789096B2, “Methods and compositions for selective and targeted cancer therapy” (Board of Regents of the University of Texas System, priority 2013, dated 2017).
